“Also recorded” adds a separate entry of the source.
Legend:
mice [1] = experiment: Overall behavior and reactivities in mice; type: in vivo; conditions: i.p.
Procedure, shortened: (§1)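 Male mice (20 ml/kg) and male rats (5 ml/kg) dosed intraperitoneally with compound in distilled water.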

rats = experiment: Overall behavior and reactivities in rats; type: in vivo; conditions: i.p.
Procedure, shortened: as §1

[2] = system: hypothermia, righting behavior and stereotypies induced by apomorphine; experiment: Interaction with apomorphine in mice; type: in vivo
Procedure, shortened: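 Male mice, groups of 6, given test compound intraperitoneally in distilled water (20 ml/kg) 30 min before subcutaneous apomorphine at 1 or 16 mg/kg. Hypothermia, righting behaviour and stereotypies scored.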

[3] = system: stereotypies induced by apomorphine; experiment: Interaction with apomorphine in rats; type: in vivo; conditions: i.p., apomorphine 0.5 mg/kg s.c., hydrochloride
Experimental: (§2) The results of toxicological and neuropsychopharmacological tests which were carried out with the products according to the invention have been summarized below. In these tests, solutions of the said products in distilled water were administered intraperitoneally in a volume of 20 ml/kg to male mice and in a volume of 5 ml/kg to male rats.
CRL 41 378 is administered to groups of 12 rats 0.5 h before the subcutaneous injection of 0.5 mg/kg of apomorphine.

[4] = system: hypothermia, trembling and peripheral cholinergic symptoms induced by oxotremorine; experiment: Interaction with oxotremorine; type: in vivo; conditions: mice, i.p.
Procedure, shortened: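 Male mice, groups of 6, given the compound intraperitoneally in distilled water (20 ml/kg) 0.5 h before 0.5 mg/kg oxotremorine i.p. Hypothermia, trembling and peripheral cholinergic symptoms were assessed.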

mice [5] = experiment: Four plate test; type: in vivo; conditions: i.p.
Experimental: as §2
(§3) The test is performed on groups of 10 mice 30 minutes after the administration of CRL 41 378.

mice [6] = experiment: Traction; type: in vivo; conditions: i.p.
Experimental: as §2, §3

mice [7] = experiment: Electric shock; type: in vivo; conditions: i.p.
Experimental: as §2, §3

mice [8] = experiment: Spontaneous motility (actimeter); type: in vivo; conditions: i.p., hydrochloride
Procedure, shortened: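 Male mice (6 per dose, 12 controls) received CRL 41 378 in distilled water i.p. at 20 ml/kg; 0.5 h later they were placed in an actimeter and motility was recorded for 30 minutes.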

mice [9] = experiment: Intergroup aggressiveness; type: in vivo
Procedure, shortened: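 Male mice housed 3 weeks per group in cage halves split by an opaque partition; groups of 3 given CRL 41 378 i.p. in distilled water.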

mice [10] = experiment: Motility reduced by habituation to the enclosure; type: in vivo; conditions: i.p.
Procedure, shortened: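 Male mice, habituated 18 h in actimeters (6 per dose, 12 controls), received CRL 41 378 intraperitoneally in distilled water at 20 ml/kg. Motility was recorded for 30 min, starting 30 min post-dose.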

mice [11] = experiment: Asphyxiant anoxia caused by gallamine triiodoethylate; type: in vivo; conditions: i.p., gallamine triiodoethylate 32 mg/kg
Experimental: as §2
Groups of 10 mice receive CRL 41 378 30 minutes before the intraperitoneal administration of 32 mg/kg of gallamine triiodoethylate (reference curarizing agent).

[12] = system: sleep induced by barbital; experiment: Interaction with barbital; type: in vivo; conditions: mice, i.p.; barbital 220 mg/kg
Experimental: as §2
Half an hour after the administration of CRL 41 378, groups of 10 mice receive an intraperitoneal injection of barbital (220 mg/kg).

[13] = system: central nervous system (CNS); experiment: Neuropsychopharmacological profile (conclusions of the tests); type: in vivo, mice and rats
Experimental: as §2

anesthetized dogs [14] = experiment: Cardiovascular study in anesthetized dogs; type: in vivo
Experimental: Groups of 2 adult dogs (each weighing 10 to 18 kg), anesthetized with nembutal, receive each test product (i) by intraduodenal administration at successive doses of 0.1 mg/kg, 0.5 mg/kg, 1 mg/kg, 2.5 mg/kg, 5 mg/kb, 10 mg/kg and 20 mg/kg, and then (ii) if appropriate, by intravenous administration at a dose of 10 mg/kg. The effects of 10 μg/kg of isoprenaline and/or 2 μg/kg of norepinephrine after the intraduodenal administration of a cumulative dose of 39.1 mg/kg are also assessed.
The following are measured: the total arterial blood pressure, the diastolic arterial blood pressure, the heart rate, the blood flows through the femoral and cerebral arteries and saphenous veins, the rectal temperature, the skin temperature and the pressure of the gases (essentially O2) dissolved in the arterial blood.

[15] = system: trembling and head twitches induced by 5-hydroxytryptophan (5-HTP); experiment: Interaction with 5-hydroxytryptophan in association with an MAOI (nialamide); type: in vivo, male mice
Procedure, shortened: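 Male mice (groups of 10) got nialamide 20 mg/kg intragastric at T-18 h, test product i.p. in water at T-0.5 h, then (±)-5-HTP 20 mg/kg i.p. at T. Generalized trembling, partial trembling and head twitches scored yes/no over 2 h.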

anesthetized dogs [16] = experiment: Cardiovascular study in anesthetized dogs; type: in vivo; conditions: route not specified
[17] = i.p., nialamide + (±)-5-HTP, male mice

Compound: CC(=O)N1C=NCC(c2ccccc2)C1.Cl (stereo not shown) [CRL 41 378, 1-acetyl-5-phenyl-1,4,5,6-tetrahydropyrimidine hydrochloride]
- overall behavior and reactivities (mice [1]; 1 mg/kg): no distinct modification of the behavior and reactivities compared with the control animals
- overall behavior and reactivities (mice [1]; 4 mg/kg): moderate mydriasis for 3 h, the maximum intensity being reached 1 h after administration
- overall behavior and reactivities (mice [1]; 16 mg/kg, hydrochloride): moderate salivation 1 h after administration; also recorded: moderate hypothermia; also recorded: moderate mydriasis 1 h after administration
- overall behavior and reactivities (mice [1]; 64 mg/kg, hydrochloride): sedation for 3 h; also recorded: a decrease in the breathing rate appearing between T+0.5 h and T+1 h after administration; also recorded: moderate hypothermia; also recorded: an increase in the reactivity to touch and vasodilation of the paws for 0.5 h; also recorded: salivation appearing between T+1 h and T+2 h after administration; also recorded: mydriasis for 3 h
- overall behavior and reactivities (rats; 0.5 mg/kg): moderate mydriasis for 2 h, the maximum intensity being reached 0.5 h after administration
- overall behavior and reactivities (rats; 2 mg/kg): mydriasis for 3 h, the maximum intensity also being reached 0.5 h after administration
- overall behavior and reactivities (rats; 32 mg/kg, hydrochloride): a decrease in the breathing rate and muscle tonus for 1 h; also recorded: exophthalmos for 1 h; also recorded: piloerection for 2 h; also recorded: salivation appearing 0.5 h after administration; also recorded: vasodilation of the paws and snout for 0.5 h; also recorded: mydriasis for 2 h, the maximum intensity being reached 0.5 h after administration
- minimal effective dose ([2]; Mus musculus, ip, read-out: dose as from which the hypothermia induced by apomorphine is antagonized): ≥ 0.5 mg/kg
- action on righting behavior and stereotypies due to apomorphine ([2]; i.p.): practically no modification of the righting behavior and stereotypies due to apomorphine
- action on hypothermia induced by apomorphine ([2]; i.p., hydrochloride): antagonizes the hypothermia induced by apomorphine; also recorded: antagonism of the hypothermia induced by apomorphine, reserpine and oxotremorine in mice
- action on stereotypies induced by apomorphine [3]: at the two highest doses used (8 and 32 mg/kg), CRL 41 378 seems to cause a moderate decrease in the stereotypies induced by apomorphine; also recorded: moderate antagonism of the stereotyped movements induced by apomorphine in rats
- minimal effective dose ([4]; Mus musculus, ip, read-out: dose as from which the hypothermia induced by oxotremorine is antagonized): ≥ 0.5 mg/kg
- action on signs of peripheral cholinergic stimulation induced by oxotremorine ([4]; oxotremorine 0.5 mg/kg): practically no modification of the signs of peripheral cholinergic stimulation induced by oxotremorine
- action on trembling induced by oxotremorine ([4]; oxotremorine 0.5 mg/kg): does not modify the intensity of the trembling induced by oxotremorine
- action on hypothermia induced by oxotremorine ([4]; oxotremorine 0.5 mg/kg, hydrochloride): very intense at doses of 2 and 4 mg/kg and is then less significant for the highest doses used (16 and 64 mg/kg); also recorded: antagonism of the hypothermia induced by apomorphine, reserpine and oxotremorine in mice
- number of punished passes (mice [5]): does not modify the number of punished passes
- motor incoordination / incapacity (mice [6]): does not cause motor incoordination
- convulsant effects of electric shock (mice [7]): without modifying the convulsant effects
- lethal effects of electric shock (mice [7]): At the two highest doses studied (16 and especially 64 mg/kg), CRL 41 378 strongly aggravates the lethal effects of electric shock
- spontaneous motor activity (mice [8]): at a dose of 16 mg/kg and especially at a dose of 64 mg/kg, CRL 41 378 decreases the spontaneous motor activity of the mice; also recorded: a substantial decrease in the spontaneous motor activity of mice
- minimal effective dose (mice [9]; Mus musculus, ip, read-out: dose as from which the intergroup aggressiveness is decreased): ≥ 0.5 mg/kg
- intergroup aggressiveness (number of fights) (mice [9]; mice, i.p., hydrochloride): decreases the intergroup aggressiveness as from a dose of 0.5 mg/kg but especially at doses of 2 mg/kg, 4 mg/kg and 16 mg/kg; also recorded: a decrease in the intergroup aggressiveness of mice (at doses which do not decrease the spontaneous motor activity)
- resumption in the motor activity of mice accustomed to their enclosure (mice [10]): does not cause a resumption in the motor activity of mice accustomed to their enclosure
- time taken for convulsions and death / lethal effects of gallamine triiodoethylate (mice [11]): at the highest dose used (64 mg/kg), CRL 41 378 causes a moderate decrease in the time taken for convulsions and death to occur
- duration of the sleep induced by barbital [12]: practically no modification of the duration of the sleep induced by barbital
- lethal effects of the various convulsants studied ([13]; electric shock, hypobaric hypoxia, asphyxiant anoxia): aggravates the lethal effects of the various convulsants studied (electric shock, hypobaric hypoxia, asphyxiant anoxia)
- antidepressant effects ([13]; i.p.): antidepressant effects appearing as from the lowest doses
- peripheral anticholinergic activity ([13]; i.p.): absence of peripheral anticholinergic activity
- stimulant effects ([13]; i.p.): absence of stimulant effects on the CNS
- peripheral α-adrenergic stimulant effects ([13]; i.p., hydrochloride): peripheral α-adrenergic stimulant effects appearing at high doses; also recorded: an α1 stimulation component represented by salivation and mydriasis (in mice and rats) and piloerection (in rats); also recorded: moderate hyperthermia in mice; also recorded: peripheral vasodilation (tail, paws and snout) in mice and rats
- sedative effects ([13]; i.p., hydrochloride): sedative effects appearing at high doses; also recorded: sedation in mice
- overall neuropsychopharmacological profile ([13]; summary, hydrochloride): an antidepressant exhibiting sedative effects at high doses; also recorded: resembles β-adrenergic stimulants
- rectal temperature (anesthetized dogs [14]): increases the rectal temperature
- skin temperature (anesthetized dogs [14]): does not cause a distinct modification of the skin temperature
- arterial blood pressure (anesthetized dogs [14]; intraduodenal): no effect on the arterial blood pressure by intraduodenal administration
- arterial blood pressure (anesthetized dogs [14]; intravenous): hypotensive by intravenous administration
- effects of isoprenaline (anesthetized dogs [14]; isoprenaline 10 μg/kg): decreases the effects of isoprenaline on the heart rate
- hypertension induced by norepinephrine (anesthetized dogs [14]; norepinephrine 2 μg/kg): decreases the hypertension induced by norepinephrine
- analogy with β-adrenergic stimulants in the 5-HTP procedure ([15]; 5-HTP + MAOI): more closely resembles fenoterol
- intensity of potentiation of 5-HTP effects ([15]; higher doses, 5-HTP + MAOI, male mice): the potentiation being very intense as from a dose of 16 mg/kg
- head twitches [15, 17]: moderately potentiates the head twitches
- partial trembling [15, 17]: distinctly potentiates the partial trembling
- blood flows through the femoral and vertebral arteries (anesthetized dogs [16]): decreases the blood flows through the femoral and vertebral arteries

Reference: patent US4774248A, “Methods of treating depression and depressive states using 5-phenyl-1,4,5,6-tetrahydropyrimidine derivatives” (priority 1985, dated 1988)
